Assay results reported in PubChem BioAssay (NCI).
Several values for one entry are separate records, joined by “and”; a condition that tells them apart may be missing. Identical values can stand only once.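 All cell lines were grown in 96-well plates and treated with compound for 48 hours. The concentration for 50% growth inhibition is given as GI50. The concentration for full growth arrest is given as TGI.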

test system: MDA-MB-468 breast; assay: inhibition of tumour cell growth, NCI panel, 48 h

| SMILES | GI50 | TGI |
| --- | --- | --- |
| NCCCNc1nc2ccccc2c2c(=O)c3cccc(Cl)c3sc12 | 837 nM | 2250 nM |
| CCC(=O)N1C/C(=C/c2ccc(Br)cc2)C(=O)/C(=C/c2ccc(Br)cc2)C1 | 371 nM | 1230 nM |
| N=C(N)c1ccc(-c2ccc(-c3ccc4ccccc4c3)s2)s1 | 2380 nM | 5200 nM |
| CC[C@H](C)[C@H](NC(=O)[C@H]1CCCCN1C)C(=O)N(C)[C@H](C[C@@H](OC(C)=O)c1cccc(C(=O)N[C@@H](Cc2ccccc2)C[C@H](C)C(=O)O)n1)C(C)C | 0.353 nM and 2.5 nM | – |
| CCCCCCCCCCNCCSS(=O)(=O)O | 2450 nM | 6280 nM |
| COc1ccc(C2C(C#N)=C(N)Oc3c2sc2c(Br)cccc32)cc1 (configuration not stated) | 1860 nM | 5550 nM |
| Cn1c(=O)c(Oc2ccc(F)cc2F)cc2cnc(N[C@@H]3CCOC3)nc21 | > 25000 nM | > 25000 nM |
| Clc1ccc2c(c1)N(C1CCCN(Cc3ccccc3)C1)c1ccccc1S2 (configuration not stated) | 2690 nM | 9510 nM |
| COc1ccccc1[As]=[As]c1ccccc1OC (configuration not stated) | 19.9 nM | 47.4 nM |
| O=C1Nc2ccccc2/C1=C\c1nc(-c2ccccc2F)n2ccccc12 | 1540 nM | 5510 nM |
| CCCCOc1ccc(/C=N/Nc2cc(C)nc3ccc(Br)cc23)cc1 | 1670 nM | 3220 nM |
| O=C(/C=C/c1ccccn1)c1ccc(OCc2nnc(-c3ccc(Cl)cc3)o2)cc1 | 1710 nM | 3560 nM |
| C#C[C@@]1(O)[C@@H](CO)O[C@@H](n2cc(C(F)(F)F)c3c(N)ncnc32)[C@@H]1O | 280 nM | 1900 nM |
| O=C(NCCOCCOCCOCCNC(=O)c1cc2c(o1)C(=O)c1ccccc1C2=O)NC12CC3CC(CC(C3)C1)C2 | 1080 nM | 4370 nM |
| COc1ccc(-c2cc(-c3ccc(Cl)cc3)nc(NCCCCNc3ccnc4cc(Cl)ccc34)n2)cc1 | 1720 nM | 4300 nM |
| c1ccc(Oc2ccc(Nc3ncc(-c4ccccc4)o3)cc2)cc1 | > 25000 nM | > 25000 nM |
| N#Cc1nc(C#N)c(Sc2ccccc2)c(Sc2ccccc2)c1Sc1ccccc1 | 1910 nM | 5800 nM |
| C=CCNC1=C2C[C@@H](C)C[C@H](OC)[C@H](O)[C@@H](C)/C=C(\C)[C@H](OC(N)=O)[C@@H](OC)/C=C\C=C(/C)C(=O)NC(=CC1=O)C2=O | 209 nM | 1830 nM |
| Cc1ccc(Cl)c(NS(=O)(=O)c2ccc(-c3cnc(C4CC4)o3)cc2)c1 | 45.2 nM | 7110 nM |
| COc1cc2ncnc(Nc3ccc(Oc4ccnc(C)c4)c(C)c3)c2cc1NC(=O)CC1CCSS1 (configuration not stated) | 784 nM | 1730 nM |
| Fc1ccc(-c2nn3ccccc3c2-c2ccncc2)cc1 | 11000 nM | > 25000 nM |

| SMILES | GI50 | TGI |
| --- | --- | --- |
| COc1cc(-c2nc3ccccc3o2)cc(CN2CCCCC2)c1O | 3240 nM | 22800 nM |
| COc1ccc2c(O)c(/C=C3\N=Nc4ncccc43)oc2c1C[C@@H]1CCNC[C@H]1F | 308 nM | 1430 nM |
| COc1ccc(C(=O)c2cc3c(N)c(C(=O)Nc4cccc(Br)c4C)sc3nc2C)cc1 | 40.4 nM | – |
| O=C(Nc1cc(F)c(F)cc1C(=O)O)c1ccc(-n2ccnc2)nn1 | > 100000 nM | > 100000 nM |
| CCN1C(=O)N(CC)C2C1NN=c1s/c(=C3\C(=O)N(C4CCCC4)c4ccccc43)c(=O)n12 (configuration not stated) | 325 nM | 2450 nM |
| Oc1[nH]c2ccccc2c1/C=c1/ccc2c(c1)N=C(c1ccc(C(F)(F)F)cc1)N=2 | 2390 nM | 14700 nM |
| CN(C)Cc1ccc(NC(=O)c2cncc(C#Cc3cnc(N)c4ncccc34)c2)cc1F | 7720 nM | 25700 nM |
| Cn1cc(C2=C(c3cn(CCCN)c4ccccc34)C(=O)NC2=O)c2ccccc21 | 3700 nM | 7940 nM |
| Cc1nc2sc3c(N)ncnc3c2c(C)c1C | > 25000 nM | > 25000 nM |
| CNC(=O)c1c(F)cccc1Nc1nc(Nc2cc3c(cc2OC)CCN3C(=O)CN(C)C)nc2[nH]ccc12 | 2340 nM | 8850 nM |
| C=C1C(=O)O[C@H]2[C@H]1CC/C(COC(=O)/C=C\C(=O)NCc1ccc(Cn3c(=O)sn(CCI)c3=O)cc1)=C\CC[C@@]1(C)O[C@@H]21 | 2390 nM | 5850 nM |
| CS(=O)(=O)c1cccc(Nc2ncc3cc(-c4ccccc4Cl)ccc3n2)c1 | 2070 nM | 19600 nM |
| CCN(CC)CCN1c2nc3ccccc3cc2Sc2cc3ccccc3nc21 | 1790 nM | 5330 nM |
| CCOc1ccc(C(C[N+](=O)[O-])Sc2ccccc2N)cc1 (configuration not stated) | 2110 nM | 4790 nM |
| Nc1cc(F)ccc1NC(=O)c1ccc(NC(=O)C/C=C/c2cccnc2)cn1 | 911 nM | 2500 nM |
| Clc1cccc(CNc2c3ccccc3nc3ccccc23)c1 | 1280 nM | 3130 nM |
| CCN(CC)c1ccc(-c2cc(-c3cc(OC)c(OC)c(OC)c3)nc(N3CCC(O)CC3)c2C#N)cc1 | 987 nM | 3210 nM |
| COc1ccc(S(=O)(=O)Nc2c(/C=C\c3cc(OC)c(OC)c(OC)c3)ccc(OC)c2O)cc1 | 43.9 nM | 17600 nM |
| c1ccc(-c2n(Cc3ccc4ccccc4c3)c3ccccc3[n+]2Cc2ccc3ccccc3c2)cc1 | 134 nM | 703 nM |
| O=C1Cc2cc(CCn3cncn3)c(Cl)cc2N1 | 2180 nM | 9540 nM |
| Nc1ncc(-c2ccc3ncnc(N4CCc5ccc(Cl)cc54)c3c2)cc1C(F)(F)F | 299 nM | 2680 nM |
